# Test results: patent US20230141101A1, “PDE4 INHIBITOR COMPOUND AND MEDICAL USE THEREOF” (Suzhou Longbotai Pharmaceuticals Co., Ltd., priority 2020, published 2023)
# Tests used:
# Assay type in all cases: biochemical
# Settings in all cases: 20 nM
# [1] = target: T1, PDE4A1A (Homo sapiens, UniProt P27815); assay: PDE4 inhibitory activity assay (FAM-cAMP enzymatic reaction), PDE4A1A
# T1 construct: purchased BPS 60040
# Summary of the method: (§1)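 Each isoform is incubated with test compound for 15 min at room temperature before FAM-cAMP substrate starts a 30-min reaction.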
# [2] = target: T2, PDE4B1 (Homo sapiens, UniProt Q07343); assay: PDE4 inhibitory activity assay (FAM-cAMP enzymatic reaction), PDE4B1
# T2 construct: purchased BPS 60041
# T2 sequence (Q07343 whole entry): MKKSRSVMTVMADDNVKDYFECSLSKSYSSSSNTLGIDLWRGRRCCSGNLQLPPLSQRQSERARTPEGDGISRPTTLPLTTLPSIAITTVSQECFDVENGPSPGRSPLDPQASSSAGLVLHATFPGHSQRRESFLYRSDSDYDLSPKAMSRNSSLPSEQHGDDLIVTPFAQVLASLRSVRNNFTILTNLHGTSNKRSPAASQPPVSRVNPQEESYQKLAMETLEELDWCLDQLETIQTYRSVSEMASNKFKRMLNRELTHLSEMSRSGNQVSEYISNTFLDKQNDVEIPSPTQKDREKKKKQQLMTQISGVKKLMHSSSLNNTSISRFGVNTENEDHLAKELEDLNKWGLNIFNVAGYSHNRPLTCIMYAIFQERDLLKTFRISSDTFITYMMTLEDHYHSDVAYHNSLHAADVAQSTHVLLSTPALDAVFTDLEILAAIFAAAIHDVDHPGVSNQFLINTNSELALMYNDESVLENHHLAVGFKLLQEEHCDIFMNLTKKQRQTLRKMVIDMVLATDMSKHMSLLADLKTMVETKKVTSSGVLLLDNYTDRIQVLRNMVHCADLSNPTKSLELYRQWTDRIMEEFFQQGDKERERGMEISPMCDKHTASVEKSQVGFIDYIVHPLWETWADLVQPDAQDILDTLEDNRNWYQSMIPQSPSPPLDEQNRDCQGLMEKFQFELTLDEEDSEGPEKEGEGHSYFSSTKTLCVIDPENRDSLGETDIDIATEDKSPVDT
# Summary of the method: as §1
# [3] = target: PDE4D2 (Homo sapiens, UniProt Q08499); assay: PDE4 inhibitory activity assay (FAM-cAMP enzymatic reaction), PDE4D2
# Chain of PDE4D2 (Q08499 303-809): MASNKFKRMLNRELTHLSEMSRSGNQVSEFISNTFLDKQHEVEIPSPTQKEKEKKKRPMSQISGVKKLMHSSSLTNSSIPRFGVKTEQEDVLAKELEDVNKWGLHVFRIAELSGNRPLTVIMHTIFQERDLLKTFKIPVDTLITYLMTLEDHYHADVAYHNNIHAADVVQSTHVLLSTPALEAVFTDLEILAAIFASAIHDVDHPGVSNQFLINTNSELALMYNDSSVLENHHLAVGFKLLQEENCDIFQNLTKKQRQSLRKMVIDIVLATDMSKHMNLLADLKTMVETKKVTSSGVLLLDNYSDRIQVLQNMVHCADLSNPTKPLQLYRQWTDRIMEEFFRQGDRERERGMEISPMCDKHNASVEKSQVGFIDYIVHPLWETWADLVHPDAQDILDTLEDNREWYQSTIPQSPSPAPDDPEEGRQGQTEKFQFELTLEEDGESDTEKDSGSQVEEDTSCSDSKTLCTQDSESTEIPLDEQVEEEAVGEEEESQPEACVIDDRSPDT
# Summary of the method: as §1
# T1 sequence (P27815 1-647 isoform P27815-4): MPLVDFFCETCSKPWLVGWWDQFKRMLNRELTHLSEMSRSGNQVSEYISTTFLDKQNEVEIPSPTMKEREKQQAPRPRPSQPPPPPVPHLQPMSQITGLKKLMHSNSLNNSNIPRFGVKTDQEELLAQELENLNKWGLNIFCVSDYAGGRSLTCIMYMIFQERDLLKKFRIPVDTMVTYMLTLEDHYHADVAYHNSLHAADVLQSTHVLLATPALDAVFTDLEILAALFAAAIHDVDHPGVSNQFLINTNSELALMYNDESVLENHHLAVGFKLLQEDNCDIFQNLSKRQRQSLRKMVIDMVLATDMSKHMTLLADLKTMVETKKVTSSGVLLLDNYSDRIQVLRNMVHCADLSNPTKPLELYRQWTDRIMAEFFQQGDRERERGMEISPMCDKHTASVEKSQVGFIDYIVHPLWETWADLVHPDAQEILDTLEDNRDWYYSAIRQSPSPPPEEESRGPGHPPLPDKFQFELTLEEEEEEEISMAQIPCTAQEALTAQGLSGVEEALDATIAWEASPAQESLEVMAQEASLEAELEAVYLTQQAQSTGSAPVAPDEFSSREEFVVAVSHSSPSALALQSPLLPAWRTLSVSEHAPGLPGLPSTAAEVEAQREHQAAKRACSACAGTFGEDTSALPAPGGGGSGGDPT
PDE4 A1 inhibitory effect at 20 nM [1],PDE4 B1 inhibitory effect at 20 nM [2],PDE4 D2 inhibitory effect at 20 nM [3],Structure (SMILES)
+,+,+,"CCOc1nc([C@@H](CS(C)(=O)=O)n2c(=O)[nH]c3c(C)c(-c4ccccc4C)cnc32)ccc1OC(F)F [Ex. 64, (S)-3-(1-(5-(difluoromethoxy)-6-ethoxypyridin-2-yl)-2-(methylsulfonyl)ethyl)-7-methyl-6-(o-methylphenyl)-1H-imidazo[4,5-b]pyridin-2(3H)-one]"
+,+,+,"CCOc1nc([C@@H](CS(C)(=O)=O)n2c(=O)n(C)c3c(C)c(-c4ccccc4)cnc32)ccc1OC(F)F [Ex. 66, (S)-3-(1-(5-(difluoromethoxy)-6-ethoxypyridin-2-yl)-2-(methylsulfonyl)ethyl)-1,7-dimethyl-6-phenyl-1H-imidazo[4,5-b]pyridin-2(3H)-one]"
+,+,+,"CCOc1nc([C@@H](CS(C)(=O)=O)n2c(=O)n(C)c3c(C)c(-c4ccc(F)cc4)cnc32)ccc1OC(F)F [Ex. 67, (S)-3-(1-(5-(difluoromethoxy)-6-ethoxypyridin-2-yl)-2-(methylsulfonyl)ethyl)-6-(4-fluorophenyl)-1,7-dimethyl-1H-imidazo[4,5-b]pyridin-2(3H)-one]"
+,+,+,"CCOc1nc([C@@H](CS(C)(=O)=O)n2c(=O)n(C)c3c(C)c(-c4ccccc4C)cnc32)ccc1OC(F)F [Ex. 68, (S)-3-(1-(5-(difluoromethoxy)-6-ethoxypyridin-2-yl)-2-(methylsulfonyl)ethyl)-1,7-dimethyl-6-(o-methylphenyl)-1H-imidazo[4,5-b]pyridin-2(3H)-one]"
+,+,+,"CCOc1nc([C@@H](CS(C)(=O)=O)n2c(=O)n(CC(F)F)c3c(C)c(-c4ccccc4)cnc32)ccc1OC(C)C [Ex. 70, (S)-1-(2,2-difluoroethyl)-3-(1-(6-ethoxy-5-isopropoxypyridin-2-yl)-2-(methylsulfonyl)ethyl)-7-methyl-6-phenyl-1H-imidazo[4,5-b]pyridin-2(3H)-one]"
+,+,+,"CCOc1nc([C@@H](CS(C)(=O)=O)n2c(=O)n(CC(F)F)c3c(C)c(-c4ccccc4C)cnc32)ccc1OC(C)C [Ex. 72, (S)-1-(2,2-difluoroethyl)-3-(1-(6-ethoxy-5-isopropoxypyridin-2-yl)-2-(methylsulfonyl)ethyl)-7-methyl-6-(o-methylphenyl)-1H-imidazo[4,5-b]pyridin-2(3H)-one]"
+,+,+,"CCOc1nc([C@@H](CS(C)(=O)=O)n2c(=O)[nH]c3c(C)c(Br)cnc32)ccc1OC [Ex. 73, (S)-3-(1-(6-ethoxy-5-methoxypyridin-2-yl)-2-(methylsulfonyl)ethyl)-6-bromo-7-methyl-1H-imidazo[4,5-b]pyridin-2(3H)-one]"
+,+,+,"CCOc1nc([C@@H](CS(C)(=O)=O)n2c(=O)[nH]c3cc(-c4ccccc4)cnc32)ccc1OC [Ex. 76, (S)-3-(1-(6-ethoxy-5-methoxypyridin-2-yl)-2-(methylsulfonyl)ethyl)-6-phenyl-1H-imidazo[4,5-b]pyridin-2(3H)-one]"
+,+,+,"CCOc1nc([C@@H](CS(C)(=O)=O)n2c(=O)[nH]c3cc(-c4ccc(F)cc4)cnc32)ccc1OC [Ex. 78, (S)-3-(1-(6-ethoxy-5-methoxypyridin-2-yl)-2-(methylsulfonyl)ethyl)-6-(4-fluorophenyl)-1H-imidazo[4,5-b]pyridin-2(3H)-one]"
+,+,+,"CCOc1nc([C@@H](CS(C)(=O)=O)n2c(=O)[nH]c3cc(-c4ccccc4CC)cnc32)ccc1OC [Ex. 81, (S)-3-(1-(6-ethoxy-5-methoxypyridin-2-yl)-2-(methylsulfonyl)ethyl)-6-(2-ethylphenyl)-1H-imidazo[4,5-b]pyridin-2(3H)-one]"
+,+,+,"CCOc1nc([C@@H](CS(C)(=O)=O)n2c(=O)n(C)c3cc(-c4ccccc4OC)cnc32)ccc1OC [Ex. 84, (S)-3-(1-(6-ethoxy-5-methoxypyridin-2-yl)-2-(methylsulfonyl)ethyl)-6-(2-methoxyphenyl)-1-methyl-1H-imidazo[4,5-b]pyridin-2(3H)-one]"
+,+,+,"CCOc1nc([C@@H](CS(C)(=O)=O)n2c(=O)[nH]c3cc(-c4ccccc4C(F)(F)F)cnc32)ccc1OC [Ex. 85, (S)-3-(1-(6-ethoxy-5-methoxypyridin-2-yl)-2-(methylsulfonyl)ethyl)-6-(2-(trifluoromethyl)phenyl)-1H-imidazo[4,5-b]pyridin-2(3H)-one]"
+,+,+,"CCOc1nc([C@@H](CS(C)(=O)=O)n2c(=O)[nH]c3cc(-c4ccccc4C4CC4)cnc32)ccc1OC [Ex. 87, (S)-6-(2-cyclopropylphenyl)-3-(1-(6-ethoxy-5-methoxypyridin-2-yl)-2-(methylsulfonyl)ethyl)-1H-imidazo[4,5-b]pyridin-2(3H)-one]"

# Continued, compound first:
Structure (SMILES),PDE4 A1 inhibitory effect at 20 nM [1],PDE4 B1 inhibitory effect at 20 nM [2],PDE4 D2 inhibitory effect at 20 nM [3]
"CCOc1nc([C@@H](CS(C)(=O)=O)n2c(=O)n(C)c3c(C)c(-c4ccccc4F)cnc32)ccc1OC(F)F [Ex. 65, (S)-3-(1-(5-(difluoromethoxy)-6-ethoxypyridin-2-yl)-2-(methylsulfonyl)ethyl)-6-(2-fluorophenyl)-1,7-dimethyl-1H-imidazo[4,5-b]pyridin-2(3H)-one]",+,+,+
"CCOc1nc([C@@H](CS(C)(=O)=O)n2c(=O)n(CC(F)F)c3c(C)c(-c4ccccc4F)cnc32)ccc1OC(C)C [Ex. 69, (S)-1-(2,2-difluoroethyl)-3-(1-(6-ethoxy-5-isopropoxypyridin-2-yl)-2-(methylsulfonyl)ethyl)-6-(2-fluorophenyl)-7-methyl-1H-imidazo[4,5-b]pyridin-2(3H)-one]",+,+,+
"CCOc1nc([C@@H](CS(C)(=O)=O)n2c(=O)n(CC(F)F)c3c(C)c(-c4ccc(F)cc4)cnc32)ccc1OC(C)C [Ex. 71, (S)-1-(2,2-difluoroethyl)-3-(1-(6-ethoxy-5-isopropoxypyridin-2-yl)-2-(methylsulfonyl)ethyl)-6-(4-fluorophenyl)-7-methyl-1H-imidazo[4,5-b]pyridin-2(3H)-one]",+,+,+
"CCOc1nc([C@@H](CS(C)(=O)=O)n2c(=O)[nH]c3cc(-c4ccccc4F)cnc32)ccc1OC [Ex. 74, (S)-3-(1-(6-ethoxy-5-methoxypyridin-2-yl)-2-(methylsulfonyl)ethyl)-6-(2-fluorophenyl)-1H-imidazo[4,5-b]pyridin-2(3H)-one]",+,+,+
"CCOc1nc([C@@H](CS(C)(=O)=O)n2c(=O)n(C)c3cc(-c4ccccc4)cnc32)ccc1OC [Ex. 77, (S)-3-(1-(6-ethoxy-5-methoxypyridin-2-yl)-2-(methylsulfonyl)ethyl)-6-phenyl-1-methyl-1H-imidazo[4,5-b]pyridin-2(3H)-one]",+,+,+
"CCOc1nc([C@@H](CS(C)(=O)=O)n2c(=O)n(C)c3cc(-c4ccccc4CC)cnc32)ccc1OC [Ex. 82, (S)-3-(1-(6-ethoxy-5-methoxypyridin-2-yl)-2-(methylsulfonyl)ethyl)-6-(2-ethylphenyl)-1-methyl-1H-imidazo[4,5-b]pyridin-2(3H)-one]",+,+,+
"CCOc1nc([C@@H](CS(C)(=O)=O)n2c(=O)[nH]c3cc(-c4ccccc4OC)cnc32)ccc1OC [Ex. 83, (S)-3-(1-(6-ethoxy-5-methoxypyridin-2-yl)-2-(methylsulfonyl)ethyl)-6-(2-methoxyphenyl)-1H-imidazo[4,5-b]pyridin-2(3H)-one]",+,+,+
"CCOc1nc([C@@H](CS(C)(=O)=O)n2c(=O)n(C)c3cc(-c4ccccc4C(F)(F)F)cnc32)ccc1OC [Ex. 86, (S)-3-(1-(6-ethoxy-5-methoxypyridin-2-yl)-2-(methylsulfonyl)ethyl)-6-(2-(trifluoromethyl)phenyl)-1-methyl-1H-imidazo[4,5-b]pyridin-2(3H)-one]",+,+,+
"CCOc1nc([C@@H](CS(C)(=O)=O)n2c(=O)[nH]c3cc(-c4c(F)cccc4F)cnc32)ccc1OC [Ex. 88, (S)-6-(2,6-difluorophenyl)-3-(1-(6-ethoxy-5-methoxypyridin-2-yl)-2-(methylsulfonyl)ethyl)-1H-imidazo[4,5-b]pyridin-2(3H)-one]",+,+,+
